Paper PMC6895912 (Cancers, 2019)
“Also recorded” adds a separate entry of the source. Read-outs that look alike come from different tables or passages of the source.

What was measured:
[1] = Plasma pharmacokinetics after single IV, IP or PO dose; type: in vivo, male CD-1 mice; conditions: for bioavailability: read-out: F (%) absolute bioavailability
Experimental: These studies were conducted in male CD-1 mice (7–8 weeks old, weighing about 27–33 g) were obtained from Hylasco Bio-Technology Pvt. Ltd. (A Charles River Technology Licensee, Turkapally, India). The details are presented in the Supplementary Materials.
A generic gradient LC method with a short run times of 3.5 min for Gal and 4.5 min for VNPP414 and VNPP433-3β were developed for the analysis of Gal/analogs in plasma samples. The mobile phase flow rate was 1.0 mL/min with a split ratio of 1:1 to the ionization source. The mobile phase for Gal consisted of 10 mM ammonium acetate in water as aqueous component and 100% methanol as organic modifier. For the Gal analogs, the mobile phase consisted of 0.01% formic acid in water and 100% acetonitrile. The column and autosampler were maintained at 40°C and 15°C, respectively for all assays. The turbo ion spray source was operated with typical settings as follows: ionization mode, positive; curtain gas, 30 psi; nebulizer gas (GS1), 55 psi; heater gas (GS2), 50 (for Gal analyte) and 60 (for Gal analogs analytes) psi; nebulizer gas 55 psi; temperature, 550 °C. A summary of the ion transitions, collision energies and retention times for both the analytes (Gal, VNPP414 and VNPP433- […]
components were automatically integrated using Analyst software version 1.5.
Table S1. Optimized mass spectroscopic conditions. *IS: internal standard; **Gal had two daughter ions (m/z: 119.20 and 195.20) that were used for multiple reaction monitoring (MRM) in LC-MS/MS runs. Because we observed a poor shape peak of Gal with fragment of m/z 195.20 at lower levels (LLOQ: 1 ng/mL) in plasma samples, we used fragment m/z 119.20 for the PK study. We used fragment of m/z 195.20 when Gal was used as IS where the concentration was ~200 ng/mL. This fragment was stable throughout the study.
Analytes Parent ions Daughter ions Collision energy Declustering potentials […]
1.5. Pharmacokinetics of Gal, VNPP414 and VNPP433-3β in CD-1 Mice
Male CD-1 mice (7-8 weeks old, weighing about 27-33 g) were obtained from Hylasco Bio-Technology Pvt. Ltd (A Charles River Technology Licensee in India) were maintained in a controlled environment of about 25 °C, 50% relative humidity and a 12-h light/12-h dark cycle. The compounds were formulated in either 10% DMSO in 10% solutol in phosphate-buffered saline (PBS) for single intravenous doses (1 mg/kg) or in 40% β-cyclodextrin in saline for single intraperitoneal or oral doses (10 mg/kg). 10 ml/kg dose volume used for administrating the formulation for all the three routes (IV, IP and PO). The IV administration was performed through tail vein of mice as bolus. For IP route, the compound was dosed in intraperitoneal cavity using a 27-gauze needle. PO administration was performed through gastric gavage tube (aka feeding tube). Serial blood samples were collected from 3 mice per time-point (staggered bleeding approach was used for mice where one mice was bled maximum for three time within 24h) into vacutainers containing lithium heparin (anticoagulant) at and 24 h post dose after intraperitoneal or oral administration. In total, 81 mice were used for this study. At each time point 200 μL of blood was collected into vacutainers. Venous blood Samples were collected using retro orbital puncture method. Plasma was isolated by centrifugation at 10000 rpm for 10 min and stored frozen at -80°C until assay. Plasma pharmacokinetic parameters were calculated using the non-compartmental analysis tool of Phoenix software (Version 7, Pharsight) and were determined from individual animals in each group. The area under the plasma concentration-time curve (AUC0-t and AUCinf), elimination half-life (T1/2), clearance (CL), volume of distribution (Vd) and mean residence time (MRT) were calculated from intravenous group. The peak plasma concentration (Cmax), time to achieve peak plasma concentration (Tmax), AUC0-t and AUCinf, were […]
calculated for the IP and PO groups. Absolute oral bioavailability (%F) were calculated from the PO […]

[2] = tested on: CWR-R1, CWR-R1 (10E), CWR-R1-MTX20nM cells; assay: Colony formation (clonogenicity) assay; type: cell-based, human; conditions: parental CWR-R1 and drug-resistant counterparts, 14 days
From the text: (A) Comparative GI50 values of Gal, NGGAs, and enzalutamide (ENZ) in drug-naïve-/-resistant prostate cancer cells. (B) Gal and NGGAs induce G1 cell cycle arrest in LNCaP cells. (C) VNPP414 and VNPP433-3β deplete the cell cycle regulator, cyclin D1, and upregulate p21; “+” indicates specific treatments. (D) Gal cause dose-dependent depletion of cyclin D1. (E) Unlike ENZ, Gal and VNPP433-3β inhibit colony formation of drug-naïve/-resistant cells in vitro. 1000 cells/well (CWR-R1, CWR-R1 (10E), CWR-R1-MTX20nM), seeded in 6-well plates were treated with indicated concentrations of compounds for a period of 14 days. Media containing compounds were replaced every 3 days. Colonies were stained with 0.05% crystal violet. (F) Quantification of colony formation units (CFU) in drug-naive/resistant cells. Colony assays were repeated three times and colonies counted in four quadrants of the wells. Results are represented as averages with S.E.M. (* p < 0.05, ** p < 0.001). Note: the numbers in parentheses in Figure 2B,C,E are concentrations of the agents in µM.
0.1 × 10^3 cells per well were seeded in 6-well plates and allowed to attach overnight (16 h), cells were treated with compounds in regular media (RPMI with 10% FBS) at the indicated concentrations and replaced every 3rd day for 14 days or until visible colonies could be counted. Colonies were washed and stained with 0.05% crystal violet for 30 min. Colonies were scanned and quantified (colonies counted in four quadrants of each well) with ImageJ colony counter. Results are represented as the mean of triplicates.

[3] = mouse, plasma, IP 10 mg/kg, male CD-1 mice
[4] = mouse, plasma, IV 1 mg/kg, male CD-1 mice
[5] = mouse, plasma, PO 10 mg/kg, male CD-1 mice
[6] = mouse, IP 10 mg/kg, male CD-1 mice, plasma
[7] = mouse, IV 1 mg/kg, male CD-1 mice, plasma
[8] = mouse, PO 10 mg/kg, male CD-1 mice, plasma
[9] = PO 10 mg/kg, male CD-1 mice, 10 mg/kg
[10] = male, CD-1, mouse, in vivo, ip, 10 mg/kg, IP 10 mg/kg, male CD-1 mice
[11] = male, CD-1, mouse, in vivo, po, 10 mg/kg, PO 10 mg/kg, male CD-1 mice
[12] = mouse, in vivo, IP 10 mg/kg, male CD-1 mice, plasma
[13] = mouse, in vivo, PO 10 mg/kg, male CD-1 mice, plasma

Row | SMILES | half-life [1, 3] | bioavailability [1, 3] | half-life [1, 4] | half-life [1, 5] | bioavailability [1, 5] | AUC(0-inf) [1, 6] | Cmax [1, 6] | AUC(0-inf) [1, 7] | AUC(0-inf) [1, 8] | Cmax [1, 8] | inhibition of colony formation [2] | also measured
1 | C[C@]12CC[C@H](O)CC1=CC[C@@H]1[C@@H]2CC[C@]2(C)C(n3cnc4ccccc43)=CC[C@@H]12 [Galeterone] | 1.24 h | 169% | 0.17 h | 1.26 h | 18.4% | 111 ng·h/mL | 507 ng/mL | 57.9 ng·h/mL | 969 ng·h/mL | 32.8 ng/mL | markedly inhibited clonogenic ability | half-life ([1]; male, CD-1, mouse, plasma, range over IV, IP and PO routes, mice): 0.17 to 1.26 h
2 | C[C@]12CC[C@H](OCc3ccncc3)CC1=CCC1C2CC[C@]2(C)C(n3cnc4ccccc43)=CCC12 (stereo partly shown) [VNPP414] | 6.25 h | 157% | 7.48 h | 4.3 h | 19.4% | 8600 ng·h/mL | 2170 ng/mL | 547 ng·h/mL | 1030 ng·h/mL | 175 ng/mL |  | 
3 | C[C@]12CC[C@H](n3ccnc3)CC1=CCC1C2CC[C@]2(C)C(n3cnc4ccccc43)=CCC12 (stereo partly drawn) [VNPP433-3β] |  |  |  |  |  |  |  |  |  |  | significantly more potent than Gal; also recorded: markedly inhibited clonogenic ability | F (%) absolute bioavailability [1, 9]: 49.45%; T1/2 [1, 9]: 31.19 h; half-life [1, 10]: 22.4 h; bioavailability [1, 10]: 123%; half-life ([1]; male, CD-1, mouse, in vivo, iv, 1 mg/kg, IV 1 mg/kg, male CD-1 mice): 14.3 h; half-life [1, 11]: 31.2 h; bioavailability [1, 11]: ~50%; AUC ([1]; male, CD-1, mouse, in vivo, 10 mg/kg oral dosing, mice): 71.9 µM·h; Cmax ([1]; male, CD-1, mouse, in vivo, PO 10 mg/kg, plasma, converted from ng/mL): ~2000 nM; AUC(0-inf) [1, 12]: 57300 ng·h/mL; Cmax [1, 12]: 2290 ng/mL; AUC(0-inf) ([1]; mouse, in vivo, IV 1 mg/kg, male CD-1 mice, plasma): 3470 ng·h/mL; AUC(0-inf) [1, 13]: 31800 ng·h/mL; Cmax [1, 13]: 706 ng/mL
